The text below walks through data of patent US20040186081A1, “Naaladase inhibitors for treating opioid tolerance” (Guilford Pharmaceuticals Inc., priority 2003, published 2004).

The target of one assay is NAALADase (Homo sapiens, UniProt Q04609). Kind of assay: In vitro inhibition of NAALADase activity. It is filed as biochemical.
NAALADase, sequence (Q04609 whole entry): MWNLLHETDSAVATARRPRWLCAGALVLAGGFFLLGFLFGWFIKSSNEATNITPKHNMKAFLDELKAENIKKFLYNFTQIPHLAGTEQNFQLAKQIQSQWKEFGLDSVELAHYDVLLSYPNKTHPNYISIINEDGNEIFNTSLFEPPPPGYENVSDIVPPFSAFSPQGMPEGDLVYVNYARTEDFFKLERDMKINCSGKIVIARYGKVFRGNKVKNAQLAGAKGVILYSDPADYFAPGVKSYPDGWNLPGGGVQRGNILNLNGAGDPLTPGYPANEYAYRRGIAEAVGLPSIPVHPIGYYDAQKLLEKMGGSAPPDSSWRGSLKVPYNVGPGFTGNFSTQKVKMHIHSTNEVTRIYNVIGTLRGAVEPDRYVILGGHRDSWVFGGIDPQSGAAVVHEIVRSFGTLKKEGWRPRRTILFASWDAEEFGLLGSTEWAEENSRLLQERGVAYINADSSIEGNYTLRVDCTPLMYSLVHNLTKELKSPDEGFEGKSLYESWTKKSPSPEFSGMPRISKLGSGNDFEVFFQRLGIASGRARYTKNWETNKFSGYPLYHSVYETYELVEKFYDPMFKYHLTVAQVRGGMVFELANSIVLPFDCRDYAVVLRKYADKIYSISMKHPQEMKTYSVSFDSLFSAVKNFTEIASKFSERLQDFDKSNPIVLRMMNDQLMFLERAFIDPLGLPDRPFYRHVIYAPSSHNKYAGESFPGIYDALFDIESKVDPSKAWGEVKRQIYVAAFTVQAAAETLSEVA
Settings: not given
For `O=C(O)c1cc(CS)cc(C(=O)O)c1` [5-mercaptomethyl-1,3-benzenedicarboxylic acid], the Ki was determined as 6500 nM.
In turn, `O=C(O)c1cc(CP(=O)(O)O)cc(C(=O)O)c1` [5-phosphonomethyl-1,3-benzenedicarboxylic acid] displayed a Ki of 3100 nM.
The same measure, in the same setting: then `O=C(O)c1cc(CNCc2ccco2)cc(C(=O)O)c1` [5-[[(2-furanylmethyl)amino]methyl]-1,3-benzenedicarboxylic acid], with 50000 nM; and `O=C(O)Cc1cc(C(=O)O)ccc1C(=O)O` [2-carboxymethyl-1,4-benzenedicarboxylic acid], with 9000 nM; and `O=C(O)c1cc(OCCS)cc(C(=O)O)c1` [5-(2-mercaptoethoxy)-1,3-benzenedicarboxylic acid], with 14500 nM.
With `O=C(O)c1ccc(CCS)c(C(=O)O)c1` [4-(2-mercaptoethyl)-1,3-benzenedicarboxylic acid], the Ki worked out at 116 nM.

Still in this assay, the particulars now being: IC50.
The molecule `O=C(NO)c1ccccc1O` [2,N-Dihydroxy-benzamide] gave a half-inhibitory concentration (IC50) of at least 100000 nM.

The same assay, now with this note: read-out: IC50.
`O=C(CSCCCC(Cc1cc(OCc2ccccc2)cc(C(=O)O)c1)C(=O)O)NO` (centres unmarked) [3-Benzyloxy-5-(2-carboxy-5-hydroxycarbamoylmethyl-sulfanylpentyl)-benzoic acid]: the IC50 turned out to be 2570 nM.
Consider `O=C(O)Cc1cccc(OC(CCCS)C(=O)O)c1` (centres unmarked) [3-(1-carboxy-4-mercaptobutoxy)-benzeneacetic acid], for which the IC50 worked out at 64 nM.
Take `COc1ccc(OC)c(CC(CCCS)C(=O)O)c1` (stereo not drawn) [alpha-(3-mercaptopropyl)-2,5-dimethoxy-benzenepropanoic acid]: the IC50 is 566 nM.
For the molecule `O=C(O)c1ccc(CNC(=O)c2cc(C(=O)O)cc(C(=O)NO)c2)cc1`, the IC50 is 2780 nM.
On the same count and under the same terms, then `O=C(O)c1ccccc1-c1cccc(CC(CCCS)C(=O)O)c1` (centres unmarked) [3′-(2-carboxy-5-mercaptopentyl)-[1,1′-biphenyl]-2-carboxylic acid], with 184 nM.
On to `O=C(O)C(CCCS)Cc1cccc(C(F)(F)F)c1` (stereo not drawn) [alpha-(3-mercaptopropyl)-3-(trifluoromethyl)-benzenepropanoic acid], for which the IC50 was found to be 4000 nM.
Still for that read-out and setting: then `CC(C)(C)c1cc(CC(CCCS)C(=O)O)cc(C(=O)O)c1` (stereo not drawn) [3-carboxy-5-(1,1-dimethylethyl)-alpha-(3-mercaptopropyl)-benzenepropanoic acid], with 0.05 nM; and `O=C(O)c1ccc(Cl)c(CC(CCCS)C(=O)O)c1` (stereo not drawn) [5-carboxy-2-chloro-alpha-(3-mercaptopropyl)-benzenepropanoic acid], with 2.09 nM; and `CC(C)(C)c1cc(COc2cccc(CCS)c2C(=O)O)cc(C(=O)O)c1` [2-[[3-carboxy-5-(1,1-dimethylethyl)phenyl]methoxy]-6-(2-mercaptoethyl)-benzoic acid], with 23.7 nM.
Still for that read-out and setting: the figure for `O=C(CCCOc1cccc(-c2cccc(C(=O)O)c2)c1C(=O)O)NO` [3-(3-Hydroxycarbamoyl-propoxy)-biphenyl-2,3′-dicarboxylic acid] is 9100 nM; for `COc1cc(CC(CCCS)C(=O)O)cc(C(=O)O)c1` (stereo not drawn) [3-carboxy-alpha-(3-mercaptopropyl)-5-methoxy-benzenepropanoic acid] it is 13 nM.
On the same count and under the same terms, then `CCCC(SCCCC(Cc1cccc(C(=O)O)c1)C(=O)O)C(=O)NO` (centres unmarked) [3-[2-Carboxy-5-(1-hydroxycarbamoyl-butylsulfanyl)-pentyl]-benzoic acid], with 1530 nM; and `O=C(NO)c1ccc(Oc2ccc(F)cc2)c([N+](=O)[O-])c1` [4-(4-Fluoro-phenoxy)-N-hydroxy-3-nitro-benzamide], with at least 100000 nM.
For the molecule `O=C(CSCC(Cc1cccc(C(=O)O)c1)C(=O)O)NO` (centres unmarked) [3-(2-Carboxy-3-hydroxycarbamoylmethyl-sulfanylpropyl)-benzoic acid], the IC50 was determined as 3070 nM.
Same read-out and setting: the figure for `O=C(O)C(CCCS)Cc1ccccc1` (stereo not drawn) [alpha-(3-mercaptopropyl)-benzenepropanoic acid] is 2270 nM; for `CC(=O)c1ccc(OC(CCCS)C(=O)O)cc1` (centres unmarked) [2-(4-acetylphenoxy)-5-mercaptopentanoic acid] it is 29.8 nM; for `O=C(COc1cccc(C(=O)O)c1)NO` [3-Hydroxycarbamoylmethoxy-benzoic acid] it is 40800 nM.
Same read-out and setting: then `O=C(O)c1cccc(CC(CCCS)C(=O)O)c1Cl` (stereo not drawn) [3-carboxy-2-chloro-alpha-(3-mercaptopropyl)-benzenepropanoic acid], with 1200 nM.
In the case of `O=C(CSCCCC(Cc1cc(Br)cc(C(=O)O)c1)C(=O)O)NO` (centres unmarked) [3-Bromo-5-(2-carboxy-5-hydroxycarbamoyl-methylsulfanylpentyl)-benzoic acid], the IC50 came out at 2460 nM.
Still for that read-out and setting: the figure for `O=C(CSCCCCC(Cc1cccc(C(=O)O)c1)C(=O)O)NO` (centres unmarked) [3-(2-Carboxy-6-hydroxycarbamoylmethyl-sulfanylhexyl)-benzoic acid] is 3330 nM; for `CC(S)CCC(Cc1cc(C(=O)O)cc(C(C)(C)C)c1)C(=O)O` (stereo not drawn) [3-carboxy-5-(1,1-dimethylethyl)-alpha-(3-mercaptobutyl)-benzenepropanoic acid] it is 1 nM; for `O=C(O)c1ccccc1OC(CCCS)C(=O)O` (centres unmarked) [2-(1-carboxy-4-mercaptobutoxy)-benzoic acid] it is 4600 nM.
On to `O=C(O)c1ccc(-c2cccc(CCS)c2C(=O)O)cc1` [3-(2-mercaptoethyl)-[1,1′-biphenyl]-2,4′-dicarboxylic acid], for which the IC50 worked out at 4.28 nM.
Same read-out and setting: then `CCC(SCCC(Cc1cc(C(=O)O)cc(C(C)(C)C)c1)C(=O)O)C(=O)NO` (centres unmarked) [3-tert-Butyl-5-[2-carboxy-4-(1-hydroxycarbamoyl-propylsulfanyl)-butyl]-benzoic acid], with 16000 nM; and `O=C(O)c1cc(CC(CCCS)C(=O)O)cc(C(=O)O)c1` (centres unmarked) [5-(2-carboxy-5-mercaptopentyl)-1,3-benzenedicarboxylic acid], with 2.55 nM.
The same measure, in the same setting: then `O=C(O)c1cccc(CC(CCCSC(C(=O)NO)c2ccccc2)C(=O)O)c1` (centres unmarked) [3-[2-Carboxy-5-(hydroxycarbamoyl-phenyl-methylsulfanyl)-pentyl]-benzoic acid], with 1120 nM; and `O=C(O)c1ccc(COc2cccc(CCS)c2C(=O)O)cc1Br` [2-[(3-bromo-4-carboxyphenyl)methoxy]-6-(2-mercaptoethyl)-benzoic acid], with 0.098 nM.
For the molecule `O=C(CCSCCCC(Cc1cccc(C(=O)O)c1)C(=O)O)NO` (centres unmarked) [3-[2-Carboxy-5-(2-hydroxycarbamoyl-ethylsulfanyl)-pentyl]-benzoic acid], the concentration for half-maximal inhibition (IC50) came to 113 nM.
The same measure, in the same setting: the figure for `O=C(O)c1cc(OCc2ccccc2)ccc1CCS` [2-(2-mercaptoethyl)-5-(phenylmethoxy)-benzoic acid] is 380 nM.
On the same count and under the same terms, the figure for `O=C(CSCc1ccc(OCc2ccc(C(=O)O)cc2)c(C(=O)O)c1)NO` is 1330 nM; for `O=C(CSCCCC(Cc1cccc(-c2cccc(C(=O)O)c2)c1)C(=O)O)NO` (centres unmarked) [3′-(2-Carboxy-5-hydroxycarbamoylmethylsulfanyl-pentyl)-biphenyl-3-carboxylic acid] it is 23500 nM.
For `O=C(O)CCC(CCCSCC(=O)NO)C(=O)O` (centres unmarked) [2-(3-Hydroxycarbamoyl-methylsulfanylpropyl)-pentanedioic acid], the IC50 stood at 3000 nM.
On the same count and under the same terms, then `O=C(COc1cc(C(=O)O)cc(C(=O)O)c1)NO` [5-Hydroxycarbamoylmethoxy-isophthalic acid], with 14800 nM.
Still for that read-out and setting: the figure for `N#Cc1ccccc1CC(CCCS)C(=O)O` (stereo not drawn) [2-cyano-alpha-(3-mercaptopropyl)-benzenepropanoic acid] is 450 nM.
